Source: patent US9708314B2, “Heterocyclic amide compound” (NISSAN CHEMICAL INDUSTRIES, LTD., priority 2013, dated 2017)

How the values were obtained:
Format in all cases: in vivo
Monochoria vaginalis [1] = test: Test Example 2: herbicidal activity, application during weed generation in submerged conditions; conditions: Eighteenth Table; application herbicide amount 320 g/ha
Method in brief: (§1)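 Alluvial soil in Wagner pots flooded to 4 cm water depth; seeds sown mixed, grown in greenhouse at 25–30 °C. At one- to two-leaf stage, emulsion diluted with water to the set rate (g/ha) was applied to the water surface. Effect scored 0–5 by herbicidal ratio three weeks later.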

Scirpus juncoides [2] = test: as above; conditions: Eighteenth Table; application herbicide amount 320 g/ha
Method in brief: as §1

[3] = test system: Echinochloa oryzacola Vasing.; test: as above; conditions: Eighteenth Table; application herbicide amount 320 g/ha
Method in brief: as §1

[4] = test system: Echinochloa crus-galli var. crus-galli; test: Test Example 4: herbicidal effect by application to foliage (diluvial soil, plastic box); conditions: application to foliage, application herbicide amount 320 g/ha
Method in brief: (§2)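 Scores run from 0 (herbicidal ratio ≤5%) to 5 (≥90%, almost fully withered) and were assessed three weeks after foliar spraying. Seedlings had been raised for 14 days at 25-30° C in sterilized diluvial soil before treatment, with the emulsion diluted in water to the stated g/ha dose.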

Chenopodium album = test: as above; conditions: application to foliage, application herbicide amount 320 g/ha
Method in brief: as §2

Triticum aestivum = test: Test Example 4: effect on crop by application to foliage (diluvial soil, plastic box); conditions: application to foliage, application herbicide amount 320 g/ha
Method in brief: as §2

Monochoria vaginalis [5] = test: Test Example 1: herbicidal activity, application before weed generation in submerged conditions; conditions: Application herbicide amount 320 g/ha; Seventeenth Table
Method in brief: (§3)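 Alluvial soil in Wagner pots flooded to 4 cm water depth; weed seeds sown and 2.5 leaf stage rice seedlings transplanted. Emulsion diluted in water applied to water surface on sowing day at stated g/ha. Greenhouse 25° C. to 30° C.; effects scored 0–5 by herbicidal ratio after three weeks.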

Scirpus juncoides [6] = test: as above; conditions: Application herbicide amount 320 g/ha; Seventeenth Table
Method in brief: as §3

[7] = test system: Echinochloa oryzacola Vasing.; test: as above; conditions: Application herbicide amount 320 g/ha; Seventeenth Table
Method in brief: as §3

SMILES: Cc1nnc(NC(=O)c2ccc(C(F)(F)F)n3c([S+]([O-])C(C)C)nnc23)o1 (stereo not drawn) [1-035]
- C (Monochoria vaginalis) herbicidal ratio grade (Monochoria vaginalis [1]): 4 (Herbicidal ratio of 70% or more and less than 90%)
- B (Scirpus juncoides) herbicidal ratio grade (Scirpus juncoides [2]): 4 (Herbicidal ratio of 70% or more and less than 90%)
- A (Echinochloa oryzicola Vasing.) herbicidal ratio grade [3]: 5 (Herbicidal ratio of 90% or more (almost completely withered))
- H (Echinochloa crus-galli var. crus-galli) herbicidal effect [4]: 5 (Herbicidal ratio of 90% or more (almost completely withered))
- O (Chenopodium album) herbicidal effect (Chenopodium album): 5 (Herbicidal ratio of 90% or more (almost completely withered))
- e (Triticum aestivum) effect on crop (Triticum aestivum): 2 (Herbicidal ratio of 20% or more and less than 40%)
- C: Monochoria vaginalis (herbicidal effect grade) (Monochoria vaginalis [5]): 4 (Herbicidal ratio of 70% or more and less than 90%)
- B: Scirpus juncoides (herbicidal effect grade) (Scirpus juncoides [6]): 4 (Herbicidal ratio of 70% or more and less than 90%)
- A: Echinochloa oryzicola Vasing. (herbicidal effect grade) [7]: 5 (Herbicidal ratio of 90% or more (almost completely withered))

SMILES: Cc1nnc(NC(=O)c2ccc(C(F)(F)F)n3c(C[S+](C)[O-])nnc23)o1 (stereo not drawn) [1-036]
- C (Monochoria vaginalis) herbicidal ratio grade (Monochoria vaginalis [1]): 4 (Herbicidal ratio of 70% or more and less than 90%)
- B (Scirpus juncoides) herbicidal ratio grade (Scirpus juncoides [2]): 2 (Herbicidal ratio of 20% or more and less than 40%)
- A (Echinochloa oryzicola Vasing.) herbicidal ratio grade [3]: 3 (Herbicidal ratio of 40% or more and less than 70%)
- H (Echinochloa crus-galli var. crus-galli) herbicidal effect [4]: 5 (Herbicidal ratio of 90% or more (almost completely withered))
- O (Chenopodium album) herbicidal effect (Chenopodium album): 5 (Herbicidal ratio of 90% or more (almost completely withered))
- e (Triticum aestivum) effect on crop (Triticum aestivum): 3 (Herbicidal ratio of 40% or more and less than 70%)
- C: Monochoria vaginalis (herbicidal effect grade) (Monochoria vaginalis [5]): 3 (Herbicidal ratio of 40% or more and less than 70%)
- B: Scirpus juncoides (herbicidal effect grade) (Scirpus juncoides [6]): 3 (Herbicidal ratio of 40% or more and less than 70%)
- A: Echinochloa oryzicola Vasing. (herbicidal effect grade) [7]: 4 (Herbicidal ratio of 70% or more and less than 90%)

SMILES: Cc1nnc(NC(=O)c2ccc(C(F)(F)F)n3c(C[S+]([O-])CC(F)(F)F)nnc23)o1 (stereo not drawn) [1-038]
- C (Monochoria vaginalis) herbicidal ratio grade (Monochoria vaginalis [1]): 0 (Herbicidal ratio of 5% or less (almost no effect))
- B (Scirpus juncoides) herbicidal ratio grade (Scirpus juncoides [2]): 1 (Herbicidal ratio of 5% or more and less than 20%)
- A (Echinochloa oryzicola Vasing.) herbicidal ratio grade [3]: 1 (Herbicidal ratio of 5% or more and less than 20%)
- H (Echinochloa crus-galli var. crus-galli) herbicidal effect [4]: 5 (Herbicidal ratio of 90% or more (almost completely withered))
- O (Chenopodium album) herbicidal effect (Chenopodium album): 5 (Herbicidal ratio of 90% or more (almost completely withered))
- e (Triticum aestivum) effect on crop (Triticum aestivum): 1 (Herbicidal ratio of 5% or more and less than 20%)
- C: Monochoria vaginalis (herbicidal effect grade) (Monochoria vaginalis [5]): 1 (Herbicidal ratio of 5% or more and less than 20%)
- B: Scirpus juncoides (herbicidal effect grade) (Scirpus juncoides [6]): 2 (Herbicidal ratio of 20% or more and less than 40%)
- A: Echinochloa oryzicola Vasing. (herbicidal effect grade) [7]: 2 (Herbicidal ratio of 20% or more and less than 40%)

SMILES: CCOC(=O)Cc1nnc2c(C(=O)Nc3nnc(C)o3)ccc(C(F)(F)F)n12 [1-042]
- C (Monochoria vaginalis) herbicidal ratio grade (Monochoria vaginalis [1]): 3 (Herbicidal ratio of 40% or more and less than 70%)
- B (Scirpus juncoides) herbicidal ratio grade (Scirpus juncoides [2]): 2 (Herbicidal ratio of 20% or more and less than 40%)
- A (Echinochloa oryzicola Vasing.) herbicidal ratio grade [3]: 1 (Herbicidal ratio of 5% or more and less than 20%)
- H (Echinochloa crus-galli var. crus-galli) herbicidal effect [4]: 5 (Herbicidal ratio of 90% or more (almost completely withered))
- O (Chenopodium album) herbicidal effect (Chenopodium album): 5 (Herbicidal ratio of 90% or more (almost completely withered))
- e (Triticum aestivum) effect on crop (Triticum aestivum): 0 (Herbicidal ratio of 5% or less (almost no effect))
- C: Monochoria vaginalis (herbicidal effect grade) (Monochoria vaginalis [5]): 2 (Herbicidal ratio of 20% or more and less than 40%)
- B: Scirpus juncoides (herbicidal effect grade) (Scirpus juncoides [6]): 2 (Herbicidal ratio of 20% or more and less than 40%)
- A: Echinochloa oryzicola Vasing. (herbicidal effect grade) [7]: 2 (Herbicidal ratio of 20% or more and less than 40%)

SMILES: Cc1ccc(-c2nnc3c(C(=O)Nc4nnc(C)o4)ccc(C(F)(F)F)n23)cc1 [1-043]
- C (Monochoria vaginalis) herbicidal ratio grade (Monochoria vaginalis [1]): 3 (Herbicidal ratio of 40% or more and less than 70%)
- B (Scirpus juncoides) herbicidal ratio grade (Scirpus juncoides [2]): 3 (Herbicidal ratio of 40% or more and less than 70%)
- A (Echinochloa oryzicola Vasing.) herbicidal ratio grade [3]: 3 (Herbicidal ratio of 40% or more and less than 70%)
- H (Echinochloa crus-galli var. crus-galli) herbicidal effect [4]: 5 (Herbicidal ratio of 90% or more (almost completely withered))
- O (Chenopodium album) herbicidal effect (Chenopodium album): 5 (Herbicidal ratio of 90% or more (almost completely withered))
- e (Triticum aestivum) effect on crop (Triticum aestivum): 0 (Herbicidal ratio of 5% or less (almost no effect))
- C: Monochoria vaginalis (herbicidal effect grade) (Monochoria vaginalis [5]): 3 (Herbicidal ratio of 40% or more and less than 70%)
- B: Scirpus juncoides (herbicidal effect grade) (Scirpus juncoides [6]): 3 (Herbicidal ratio of 40% or more and less than 70%)
- A: Echinochloa oryzicola Vasing. (herbicidal effect grade) [7]: 5 (Herbicidal ratio of 90% or more (almost completely withered))

SMILES: Cc1nnc(NC(=O)c2ccc(C(F)(F)F)n3c(-c4ccc(F)cc4)nnc23)o1 [1-044]
- C (Monochoria vaginalis) herbicidal ratio grade (Monochoria vaginalis [1]): 2 (Herbicidal ratio of 20% or more and less than 40%)
- B (Scirpus juncoides) herbicidal ratio grade (Scirpus juncoides [2]): 3 (Herbicidal ratio of 40% or more and less than 70%)
- A (Echinochloa oryzicola Vasing.) herbicidal ratio grade [3]: 2 (Herbicidal ratio of 20% or more and less than 40%)
- H (Echinochloa crus-galli var. crus-galli) herbicidal effect [4]: 5 (Herbicidal ratio of 90% or more (almost completely withered))
- O (Chenopodium album) herbicidal effect (Chenopodium album): 5 (Herbicidal ratio of 90% or more (almost completely withered))
- e (Triticum aestivum) effect on crop (Triticum aestivum): 0 (Herbicidal ratio of 5% or less (almost no effect))
- C: Monochoria vaginalis (herbicidal effect grade) (Monochoria vaginalis [5]): 3 (Herbicidal ratio of 40% or more and less than 70%)
- B: Scirpus juncoides (herbicidal effect grade) (Scirpus juncoides [6]): 3 (Herbicidal ratio of 40% or more and less than 70%)
- A: Echinochloa oryzicola Vasing. (herbicidal effect grade) [7]: 5 (Herbicidal ratio of 90% or more (almost completely withered))

SMILES: COc1ccccc1-c1nnc2c(C(=O)Nc3nnc(C)o3)ccc(C(F)(F)F)n12 [1-047]
- C (Monochoria vaginalis) herbicidal ratio grade (Monochoria vaginalis [1]): 3 (Herbicidal ratio of 40% or more and less than 70%)
- B (Scirpus juncoides) herbicidal ratio grade (Scirpus juncoides [2]): 2 (Herbicidal ratio of 20% or more and less than 40%)
- A (Echinochloa oryzicola Vasing.) herbicidal ratio grade [3]: 3 (Herbicidal ratio of 40% or more and less than 70%)
- H (Echinochloa crus-galli var. crus-galli) herbicidal effect [4]: 5 (Herbicidal ratio of 90% or more (almost completely withered))
- O (Chenopodium album) herbicidal effect (Chenopodium album): 5 (Herbicidal ratio of 90% or more (almost completely withered))
- e (Triticum aestivum) effect on crop (Triticum aestivum): 0 (Herbicidal ratio of 5% or less (almost no effect))
- C: Monochoria vaginalis (herbicidal effect grade) (Monochoria vaginalis [5]): 2 (Herbicidal ratio of 20% or more and less than 40%)
- B: Scirpus juncoides (herbicidal effect grade) (Scirpus juncoides [6]): 3 (Herbicidal ratio of 40% or more and less than 70%)
- A: Echinochloa oryzicola Vasing. (herbicidal effect grade) [7]: 4 (Herbicidal ratio of 70% or more and less than 90%)

SMILES: Cc1nnc(NC(=O)c2ccc(C(F)(F)F)n3c(CC(=O)O)nnc23)o1 [1-048]
- C (Monochoria vaginalis) herbicidal ratio grade (Monochoria vaginalis [1]): 0 (Herbicidal ratio of 5% or less (almost no effect))
- B (Scirpus juncoides) herbicidal ratio grade (Scirpus juncoides [2]): 1 (Herbicidal ratio of 5% or more and less than 20%)
- A (Echinochloa oryzicola Vasing.) herbicidal ratio grade [3]: 0 (Herbicidal ratio of 5% or less (almost no effect))
- H (Echinochloa crus-galli var. crus-galli) herbicidal effect [4]: 5 (Herbicidal ratio of 90% or more (almost completely withered))
- O (Chenopodium album) herbicidal effect (Chenopodium album): 5 (Herbicidal ratio of 90% or more (almost completely withered))
- e (Triticum aestivum) effect on crop (Triticum aestivum): 1 (Herbicidal ratio of 5% or more and less than 20%)
- C: Monochoria vaginalis (herbicidal effect grade) (Monochoria vaginalis [5]): 0 (Herbicidal ratio of 5% or less (almost no effect))
- B: Scirpus juncoides (herbicidal effect grade) (Scirpus juncoides [6]): 0 (Herbicidal ratio of 5% or less (almost no effect))
- A: Echinochloa oryzicola Vasing. (herbicidal effect grade) [7]: 3 (Herbicidal ratio of 40% or more and less than 70%)

SMILES: Cc1nnc(NC(=O)c2ccc(C(F)(F)F)n3c(CC(=O)OC(C)C)nnc23)o1 [1-049]
- C (Monochoria vaginalis) herbicidal ratio grade (Monochoria vaginalis [1]): 2 (Herbicidal ratio of 20% or more and less than 40%)
- B (Scirpus juncoides) herbicidal ratio grade (Scirpus juncoides [2]): 2 (Herbicidal ratio of 20% or more and less than 40%)
- A (Echinochloa oryzicola Vasing.) herbicidal ratio grade [3]: 4 (Herbicidal ratio of 70% or more and less than 90%)
- H (Echinochloa crus-galli var. crus-galli) herbicidal effect [4]: 5 (Herbicidal ratio of 90% or more (almost completely withered))
- O (Chenopodium album) herbicidal effect (Chenopodium album): 5 (Herbicidal ratio of 90% or more (almost completely withered))
- e (Triticum aestivum) effect on crop (Triticum aestivum): 1 (Herbicidal ratio of 5% or more and less than 20%)
- C: Monochoria vaginalis (herbicidal effect grade) (Monochoria vaginalis [5]): 0 (Herbicidal ratio of 5% or less (almost no effect))
- B: Scirpus juncoides (herbicidal effect grade) (Scirpus juncoides [6]): 2 (Herbicidal ratio of 20% or more and less than 40%)
- A: Echinochloa oryzicola Vasing. (herbicidal effect grade) [7]: 5 (Herbicidal ratio of 90% or more (almost completely withered))

SMILES: CC(C)c1nnc2c(C(=O)Nc3nnco3)ccc(C(F)(F)F)n12 [1-050]
- C (Monochoria vaginalis) herbicidal ratio grade (Monochoria vaginalis [1]): 3 (Herbicidal ratio of 40% or more and less than 70%)
- B (Scirpus juncoides) herbicidal ratio grade (Scirpus juncoides [2]): 4 (Herbicidal ratio of 70% or more and less than 90%)
- A (Echinochloa oryzicola Vasing.) herbicidal ratio grade [3]: 5 (Herbicidal ratio of 90% or more (almost completely withered))
- H (Echinochloa crus-galli var. crus-galli) herbicidal effect [4]: 5 (Herbicidal ratio of 90% or more (almost completely withered))
- O (Chenopodium album) herbicidal effect (Chenopodium album): 5 (Herbicidal ratio of 90% or more (almost completely withered))
- e (Triticum aestivum) effect on crop (Triticum aestivum): 3 (Herbicidal ratio of 40% or more and less than 70%)
- C: Monochoria vaginalis (herbicidal effect grade) (Monochoria vaginalis [5]): 4 (Herbicidal ratio of 70% or more and less than 90%)
- B: Scirpus juncoides (herbicidal effect grade) (Scirpus juncoides [6]): 5 (Herbicidal ratio of 90% or more (almost completely withered))
- A: Echinochloa oryzicola Vasing. (herbicidal effect grade) [7]: 5 (Herbicidal ratio of 90% or more (almost completely withered))
